Results: ChEMBL document CHEMBL5442175, “EUbOPEN Chemogenomics Library - PDSP Secondary Binding” (2024)
Where a name gives a salt, the structure may show the parent alone.

How the values were obtained:
[1] = target: Sigma intracellular receptor 2 (Homo sapiens, UniProt Q5BJF2); assay: (§1) PDSP Secondary Binding target: TMEM97 - Compounds are tested at 10 uM concentration, plate are incubated at room temperature in the dark for 90 minutes. Reaction are stopped by vacuum filtration onto 0.3% polyethyleneimine soaked filter mats using Filtermate harvester. Scintillation cocktail is then melted onto microwave-dried filters on a hot plate and the radio activity is counted in Microbia counter.
Sequence of Sigma intracellular receptor 2 (Q5BJF2 whole entry): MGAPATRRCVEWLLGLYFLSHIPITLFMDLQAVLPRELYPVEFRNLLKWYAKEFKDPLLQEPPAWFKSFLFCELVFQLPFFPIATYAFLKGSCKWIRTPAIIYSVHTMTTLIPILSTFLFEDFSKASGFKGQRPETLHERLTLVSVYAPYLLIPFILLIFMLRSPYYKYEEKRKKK

[2] = target: Sigma non-opioid intracellular receptor 1 (Homo sapiens, UniProt Q99720); assay: as §1, with “SIGMAR1” for “TMEM97”
Sequence of Sigma non-opioid intracellular receptor 1 (Q99720 whole entry): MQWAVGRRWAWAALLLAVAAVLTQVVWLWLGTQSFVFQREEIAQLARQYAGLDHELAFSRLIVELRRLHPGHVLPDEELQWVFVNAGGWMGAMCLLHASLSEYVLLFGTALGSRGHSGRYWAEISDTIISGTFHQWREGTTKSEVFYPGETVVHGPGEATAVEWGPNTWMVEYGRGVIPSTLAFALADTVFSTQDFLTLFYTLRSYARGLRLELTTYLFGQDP

[3] = target: Mu-type opioid receptor (Homo sapiens, UniProt P35372); assay: as §1, with “OPRM1” for “TMEM97”
Sequence of Mu-type opioid receptor (P35372 whole entry): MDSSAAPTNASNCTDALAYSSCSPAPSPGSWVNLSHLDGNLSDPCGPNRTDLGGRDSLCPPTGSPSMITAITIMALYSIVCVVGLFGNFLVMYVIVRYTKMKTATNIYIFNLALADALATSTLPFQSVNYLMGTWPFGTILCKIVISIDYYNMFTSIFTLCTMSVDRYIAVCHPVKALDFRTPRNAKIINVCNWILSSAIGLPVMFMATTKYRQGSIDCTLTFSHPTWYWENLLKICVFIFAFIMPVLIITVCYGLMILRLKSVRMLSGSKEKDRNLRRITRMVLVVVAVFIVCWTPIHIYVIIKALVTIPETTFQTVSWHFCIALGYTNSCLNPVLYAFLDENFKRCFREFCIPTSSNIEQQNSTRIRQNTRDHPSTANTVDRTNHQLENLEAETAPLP

[4] = target: T1, 5-hydroxytryptamine receptor 3A (Homo sapiens, UniProt P46098); assay: as §1, with “HTR3A” for “TMEM97”
T1 sequence (P46098 whole entry): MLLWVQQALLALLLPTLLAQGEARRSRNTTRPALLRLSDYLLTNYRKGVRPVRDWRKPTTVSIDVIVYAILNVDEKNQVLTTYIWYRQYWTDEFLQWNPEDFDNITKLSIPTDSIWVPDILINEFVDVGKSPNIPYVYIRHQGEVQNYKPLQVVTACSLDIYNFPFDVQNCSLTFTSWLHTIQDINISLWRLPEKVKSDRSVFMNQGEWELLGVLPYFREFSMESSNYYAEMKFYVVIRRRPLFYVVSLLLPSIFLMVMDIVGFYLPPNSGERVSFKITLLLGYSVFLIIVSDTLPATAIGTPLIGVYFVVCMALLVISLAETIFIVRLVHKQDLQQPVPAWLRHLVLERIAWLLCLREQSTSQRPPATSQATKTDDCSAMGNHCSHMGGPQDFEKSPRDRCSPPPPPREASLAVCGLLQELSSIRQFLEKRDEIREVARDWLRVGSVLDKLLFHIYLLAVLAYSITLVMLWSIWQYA

[5] = target: 5-hydroxytryptamine receptor 7 (Homo sapiens, UniProt P34969); assay: as §1, with “HTR7” for “TMEM97”
Sequence of 5-hydroxytryptamine receptor 7 (P34969 whole entry): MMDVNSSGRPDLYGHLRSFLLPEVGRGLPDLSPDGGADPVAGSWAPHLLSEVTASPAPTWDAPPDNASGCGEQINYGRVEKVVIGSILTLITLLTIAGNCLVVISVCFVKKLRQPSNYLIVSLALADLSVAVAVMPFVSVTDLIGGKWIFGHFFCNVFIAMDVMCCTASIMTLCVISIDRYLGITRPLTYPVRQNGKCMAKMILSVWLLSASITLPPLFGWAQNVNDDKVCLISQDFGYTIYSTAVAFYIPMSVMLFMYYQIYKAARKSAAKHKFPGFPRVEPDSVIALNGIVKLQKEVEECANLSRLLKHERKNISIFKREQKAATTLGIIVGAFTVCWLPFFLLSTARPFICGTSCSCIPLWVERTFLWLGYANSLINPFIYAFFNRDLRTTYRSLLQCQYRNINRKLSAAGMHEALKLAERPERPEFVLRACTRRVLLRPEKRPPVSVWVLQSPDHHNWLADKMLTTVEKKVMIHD

[6] = target: Sodium-dependent noradrenaline transporter (Homo sapiens, UniProt P23975); assay: as §1, with “SLC6A2” for “TMEM97”
Sequence of Sodium-dependent noradrenaline transporter (P23975 whole entry): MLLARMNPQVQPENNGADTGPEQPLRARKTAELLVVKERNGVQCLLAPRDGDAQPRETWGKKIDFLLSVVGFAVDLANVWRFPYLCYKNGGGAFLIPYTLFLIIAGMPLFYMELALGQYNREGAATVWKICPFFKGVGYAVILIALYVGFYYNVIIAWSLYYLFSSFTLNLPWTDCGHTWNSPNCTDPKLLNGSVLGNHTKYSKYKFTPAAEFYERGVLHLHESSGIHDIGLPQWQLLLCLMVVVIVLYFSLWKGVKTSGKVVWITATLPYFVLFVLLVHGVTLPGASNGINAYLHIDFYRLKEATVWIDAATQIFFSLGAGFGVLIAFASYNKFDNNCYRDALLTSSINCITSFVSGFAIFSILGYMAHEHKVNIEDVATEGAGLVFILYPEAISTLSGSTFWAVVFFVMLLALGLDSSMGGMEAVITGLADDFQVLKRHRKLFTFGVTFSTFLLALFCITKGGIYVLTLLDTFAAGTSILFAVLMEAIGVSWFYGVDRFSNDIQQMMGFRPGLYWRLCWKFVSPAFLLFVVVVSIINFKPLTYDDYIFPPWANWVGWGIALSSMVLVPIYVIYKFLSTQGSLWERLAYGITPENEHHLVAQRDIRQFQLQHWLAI

[7] = target: T2, 5-hydroxytryptamine receptor 2C (Homo sapiens, UniProt P28335); assay: as §1, with “HTR2C” for “TMEM97”
T2 sequence (P28335 whole entry): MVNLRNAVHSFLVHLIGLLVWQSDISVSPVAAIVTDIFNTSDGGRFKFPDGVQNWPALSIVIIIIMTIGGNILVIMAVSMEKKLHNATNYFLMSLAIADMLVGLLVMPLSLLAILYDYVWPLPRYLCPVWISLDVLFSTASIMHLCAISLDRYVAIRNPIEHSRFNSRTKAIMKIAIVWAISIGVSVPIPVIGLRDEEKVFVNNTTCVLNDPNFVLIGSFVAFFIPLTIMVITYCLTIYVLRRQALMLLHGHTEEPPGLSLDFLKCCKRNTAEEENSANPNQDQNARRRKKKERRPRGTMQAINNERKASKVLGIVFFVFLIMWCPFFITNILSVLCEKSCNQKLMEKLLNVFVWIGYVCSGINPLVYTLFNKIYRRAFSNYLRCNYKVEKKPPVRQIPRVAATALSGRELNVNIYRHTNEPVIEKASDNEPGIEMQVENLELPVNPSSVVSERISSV

[8] = target: Histamine H1 receptor (Homo sapiens, UniProt P35367); assay: as §1, with “HRH1” for “TMEM97”
Sequence of Histamine H1 receptor (P35367 whole entry): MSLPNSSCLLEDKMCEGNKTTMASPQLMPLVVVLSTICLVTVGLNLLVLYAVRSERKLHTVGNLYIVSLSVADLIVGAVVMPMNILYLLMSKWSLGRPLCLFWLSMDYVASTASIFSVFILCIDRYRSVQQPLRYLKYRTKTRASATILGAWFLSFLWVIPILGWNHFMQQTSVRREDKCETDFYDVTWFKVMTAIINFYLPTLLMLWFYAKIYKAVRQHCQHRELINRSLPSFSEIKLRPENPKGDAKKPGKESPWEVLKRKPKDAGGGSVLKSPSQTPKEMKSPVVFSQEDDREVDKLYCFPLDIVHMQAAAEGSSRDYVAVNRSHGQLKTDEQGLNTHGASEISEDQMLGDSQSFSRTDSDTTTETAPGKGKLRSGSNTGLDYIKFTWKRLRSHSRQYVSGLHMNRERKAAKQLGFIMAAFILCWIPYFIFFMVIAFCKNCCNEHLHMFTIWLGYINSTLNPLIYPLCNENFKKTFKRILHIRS

[9] = target: T3, Muscarinic acetylcholine receptor M4 (Homo sapiens, UniProt P08173); assay: as §1, with “CHRM4” for “TMEM97”
T3 sequence (P08173 whole entry): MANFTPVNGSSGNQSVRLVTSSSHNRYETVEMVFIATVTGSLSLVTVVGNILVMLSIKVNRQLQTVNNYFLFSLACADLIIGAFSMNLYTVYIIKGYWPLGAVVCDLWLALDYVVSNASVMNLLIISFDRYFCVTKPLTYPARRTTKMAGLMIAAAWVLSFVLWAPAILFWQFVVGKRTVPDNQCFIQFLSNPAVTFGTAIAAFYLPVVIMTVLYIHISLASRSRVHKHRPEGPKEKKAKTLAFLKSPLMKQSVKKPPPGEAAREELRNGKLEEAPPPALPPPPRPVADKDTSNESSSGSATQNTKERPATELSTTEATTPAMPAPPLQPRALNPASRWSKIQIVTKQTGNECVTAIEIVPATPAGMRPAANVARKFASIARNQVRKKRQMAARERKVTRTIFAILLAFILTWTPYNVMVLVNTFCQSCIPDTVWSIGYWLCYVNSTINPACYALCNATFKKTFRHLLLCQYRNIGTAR

[10] = target: 5-hydroxytryptamine receptor 1D (Homo sapiens, UniProt P28221); assay: as §1, with “HTR1D” for “TMEM97”
Sequence of 5-hydroxytryptamine receptor 1D (P28221 whole entry): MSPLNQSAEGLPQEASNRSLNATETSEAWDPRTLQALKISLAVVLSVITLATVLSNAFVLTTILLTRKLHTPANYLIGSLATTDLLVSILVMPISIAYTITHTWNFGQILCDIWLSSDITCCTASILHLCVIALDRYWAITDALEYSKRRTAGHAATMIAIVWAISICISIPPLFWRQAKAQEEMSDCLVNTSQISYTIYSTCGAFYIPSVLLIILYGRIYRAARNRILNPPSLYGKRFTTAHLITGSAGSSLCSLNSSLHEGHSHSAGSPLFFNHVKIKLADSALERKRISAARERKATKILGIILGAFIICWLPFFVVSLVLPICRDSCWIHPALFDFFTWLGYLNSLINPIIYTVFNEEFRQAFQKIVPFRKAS

[11] = target: 5-hydroxytryptamine receptor 5A (Homo sapiens, UniProt P47898); assay: as §1, with “HTR5A” for “TMEM97”
Sequence of 5-hydroxytryptamine receptor 5A (P47898 whole entry): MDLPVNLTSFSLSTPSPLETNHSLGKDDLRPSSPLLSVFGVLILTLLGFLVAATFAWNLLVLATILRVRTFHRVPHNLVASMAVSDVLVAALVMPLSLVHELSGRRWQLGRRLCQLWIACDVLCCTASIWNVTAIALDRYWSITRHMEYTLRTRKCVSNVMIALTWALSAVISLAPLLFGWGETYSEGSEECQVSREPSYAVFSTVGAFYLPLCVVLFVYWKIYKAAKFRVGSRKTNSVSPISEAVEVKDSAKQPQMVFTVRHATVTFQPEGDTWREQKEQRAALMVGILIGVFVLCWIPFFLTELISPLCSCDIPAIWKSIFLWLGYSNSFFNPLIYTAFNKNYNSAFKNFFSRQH

[12] = target: T4, D(4) dopamine receptor (Homo sapiens, UniProt P21917); assay: as §1, with “DRD4” for “TMEM97”
T4 sequence (P21917 whole entry): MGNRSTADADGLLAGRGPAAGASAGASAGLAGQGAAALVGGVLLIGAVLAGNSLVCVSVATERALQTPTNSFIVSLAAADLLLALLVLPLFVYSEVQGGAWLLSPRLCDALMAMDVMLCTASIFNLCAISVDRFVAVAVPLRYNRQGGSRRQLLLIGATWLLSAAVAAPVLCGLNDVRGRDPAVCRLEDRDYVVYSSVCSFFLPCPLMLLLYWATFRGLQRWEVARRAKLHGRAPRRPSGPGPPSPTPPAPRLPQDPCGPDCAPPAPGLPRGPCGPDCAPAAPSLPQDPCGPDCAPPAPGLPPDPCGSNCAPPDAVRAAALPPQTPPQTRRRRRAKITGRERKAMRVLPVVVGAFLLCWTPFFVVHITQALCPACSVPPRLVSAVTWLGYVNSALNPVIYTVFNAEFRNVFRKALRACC

[13] = target: 5-hydroxytryptamine receptor 6 (Homo sapiens, UniProt P50406); assay: as §1, with “HTR6” for “TMEM97”
Sequence of 5-hydroxytryptamine receptor 6 (P50406 whole entry): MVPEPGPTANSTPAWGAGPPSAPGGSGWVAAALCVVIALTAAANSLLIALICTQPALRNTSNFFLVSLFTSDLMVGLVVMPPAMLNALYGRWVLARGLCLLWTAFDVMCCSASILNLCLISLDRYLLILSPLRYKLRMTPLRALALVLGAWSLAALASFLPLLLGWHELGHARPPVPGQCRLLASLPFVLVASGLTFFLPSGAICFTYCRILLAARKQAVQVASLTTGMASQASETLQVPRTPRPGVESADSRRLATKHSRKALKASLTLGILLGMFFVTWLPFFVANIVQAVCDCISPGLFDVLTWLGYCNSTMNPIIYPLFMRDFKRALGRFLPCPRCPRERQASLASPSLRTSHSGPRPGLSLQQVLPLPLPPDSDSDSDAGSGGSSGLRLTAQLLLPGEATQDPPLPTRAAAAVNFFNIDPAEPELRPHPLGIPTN

[14] = target: Translocator protein (Homo sapiens, UniProt P30536); assay: as §1, with “TSPO” for “TMEM97”
Sequence of Translocator protein (P30536 whole entry): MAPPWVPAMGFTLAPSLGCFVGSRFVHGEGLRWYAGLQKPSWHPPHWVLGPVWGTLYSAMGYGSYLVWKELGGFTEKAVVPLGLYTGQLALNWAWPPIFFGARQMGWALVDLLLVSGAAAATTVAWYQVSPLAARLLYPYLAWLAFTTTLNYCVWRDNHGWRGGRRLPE

[15] = target: T5, Muscarinic acetylcholine receptor M5 (Homo sapiens, UniProt P08912); assay: as §1, with “CHRM5” for “TMEM97”
T5 sequence (P08912 whole entry): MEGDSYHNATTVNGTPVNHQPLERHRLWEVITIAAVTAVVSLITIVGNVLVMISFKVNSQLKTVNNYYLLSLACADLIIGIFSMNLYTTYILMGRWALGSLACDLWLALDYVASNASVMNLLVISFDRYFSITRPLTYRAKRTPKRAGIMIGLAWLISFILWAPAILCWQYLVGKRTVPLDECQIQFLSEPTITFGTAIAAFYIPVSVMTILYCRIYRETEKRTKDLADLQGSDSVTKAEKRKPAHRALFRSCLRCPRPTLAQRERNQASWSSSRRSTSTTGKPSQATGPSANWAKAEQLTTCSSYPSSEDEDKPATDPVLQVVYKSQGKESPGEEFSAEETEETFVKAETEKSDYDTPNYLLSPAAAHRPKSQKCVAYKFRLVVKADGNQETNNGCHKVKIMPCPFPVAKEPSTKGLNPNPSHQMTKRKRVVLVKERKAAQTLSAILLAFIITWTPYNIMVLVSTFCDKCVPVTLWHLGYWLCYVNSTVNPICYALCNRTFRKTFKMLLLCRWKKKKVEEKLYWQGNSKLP

[16] = target: T6, Muscarinic acetylcholine receptor M1 (Homo sapiens, UniProt P11229); assay: as §1, with “CHRM1” for “TMEM97”
T6 sequence (P11229 whole entry): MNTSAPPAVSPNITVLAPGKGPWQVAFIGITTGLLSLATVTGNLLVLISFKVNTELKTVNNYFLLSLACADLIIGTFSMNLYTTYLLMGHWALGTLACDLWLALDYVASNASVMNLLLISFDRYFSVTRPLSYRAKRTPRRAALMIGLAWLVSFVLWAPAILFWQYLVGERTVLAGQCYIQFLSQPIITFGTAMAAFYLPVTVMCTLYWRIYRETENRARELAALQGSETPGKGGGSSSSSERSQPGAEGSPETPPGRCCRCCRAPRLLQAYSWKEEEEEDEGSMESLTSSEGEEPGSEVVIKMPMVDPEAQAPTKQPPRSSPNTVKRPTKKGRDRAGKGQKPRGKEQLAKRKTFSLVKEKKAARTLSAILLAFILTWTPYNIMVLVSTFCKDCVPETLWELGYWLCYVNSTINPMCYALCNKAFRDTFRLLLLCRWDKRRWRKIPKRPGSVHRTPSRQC

| SMILES | Ki [1] [nM] | Ki [2] [nM] | Ki [3] [nM] | Ki [4] [nM] | Ki [5] [nM] | Ki [6] [nM] | Ki [7] [nM] | Ki [8] [nM] | Ki [9] [nM] | Ki [10] [nM] | Ki [11] [nM] | Ki [12] [nM] | Ki [13] [nM] | Ki [14] [nM] | Ki [15] [nM] | Ki [16] [nM] |
| --- | --- | --- | --- | --- | --- | --- | --- | --- | --- | --- | --- | --- | --- | --- | --- | --- |
| CCc1nn2c(C)cc(C)nc2c1Cc1ccc(-c2nnc(C3CCNCC3)o2)cc1 | 489 | 2000 | 7720 | 360 |  |  |  |  |  |  |  |  |  |  |  |  |
| Clc1ccc(CCCOCCCN2CCCCC2)cc1 [PITOLISANT HYDROCHLORIDE] | 7.01 | 0.904 |  |  | 1100 | 1920 | 1990 | 1200 | 899 |  |  |  |  |  |  |  |
| CC(C)[C@H](CO)Nc1nc(Nc2cccc(Cl)c2)c2ncn(C(C)C)c2n1 [PURVALANOLA] | 1130 |  |  |  |  | 4400 | 3040 |  | > 10000 | 3800 | 7540 | 4870 | 2270 | 1520 |  |  |
| C[N+]1(C)[C@@H]2C[C@@H](OC(=O)C(O)(c3cccs3)c3cccs3)C[C@H]1[C@@H]1O[C@@H]12 [TIOTROPIUM BROMIDE] | 2060 |  |  |  |  |  |  |  | 0.6 |  |  |  |  | 4290 | 1.22 |  |
| Cc1ccc(O)c([C@H](CCN(C(C)C)C(C)C)c2ccccc2)c1 [TOLTERODINE TARTRATE] | 167 | 216 |  |  |  |  |  | 127 |  |  |  |  |  |  | 3.86 | 8.69 |
